Test results published in US20220112225A1, “ANANDAMIDE COMPOUNDS” (priority 2019, published 2022).

Molecular target: T1, hMfsd2a (Homo sapiens, UniProt Q8NA29)
T1 construct: expressed in transfected cells; host or cells: HEK293
T1 sequence (Q8NA29 1-530 isoform Q8NA29-2): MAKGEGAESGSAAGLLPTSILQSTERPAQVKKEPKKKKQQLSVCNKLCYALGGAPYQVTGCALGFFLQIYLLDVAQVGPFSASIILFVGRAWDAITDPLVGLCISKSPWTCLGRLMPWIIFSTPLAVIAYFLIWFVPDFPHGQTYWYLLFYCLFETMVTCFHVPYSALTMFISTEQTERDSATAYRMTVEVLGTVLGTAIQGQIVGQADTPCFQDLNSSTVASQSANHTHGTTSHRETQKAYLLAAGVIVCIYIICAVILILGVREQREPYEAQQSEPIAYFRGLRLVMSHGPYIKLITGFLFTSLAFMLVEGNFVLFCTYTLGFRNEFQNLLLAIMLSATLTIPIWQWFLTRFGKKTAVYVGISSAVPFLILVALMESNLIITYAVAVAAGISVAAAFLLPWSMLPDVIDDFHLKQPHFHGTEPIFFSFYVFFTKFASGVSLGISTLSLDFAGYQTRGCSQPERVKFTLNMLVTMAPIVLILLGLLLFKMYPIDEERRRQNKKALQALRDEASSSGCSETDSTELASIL
Assay: In vitro Mfsd2a transport, thin layer chromatography (TLC) analysis
Format: cell-based
Details: transfected HEK293 cells, 50 μM test compound, 1 hour, iodine and cupric acetate stain
Protocol: The assay was conducted in a low throughput 6-well format with HEK293 cells prepared and then transfected in duplicate wells with plasmids containing either the wildtype (WT) version of hMfsd2a, the D97A mutant version, or an empty vector as control. Uptake into the ceils was assessed by both thin-layer chromatography (TLC) and ultrahigh performance liquid chromatography hyphenated mass spectrometry.
HEK293 cells were seeded at 6.25×10^5 per 6-well in 2 mL of DMEM with 10% FBS and 1% penicillin-streptomycin (P/S) media (Sigma) and incubated overnight at 37° C. in 5% CO2. Cells were checked for confluency the next morning. On a per well basis the following lipid mix was generated, 6 μL of Lipofectamine 2000 was added dropwise to 200 μL of OptiMEM, this was left to stand for 5 minutes at room temperature (RT). 1 μg of hMfsd2a WT, D97A or empty plasmid was prepared in 200 μL of OptiMEM as appropriate for each well; the Lipofectamine 2000 in OptiMEM solution was then added dropwise to a total volume of 400 μL (this can be scaled to support the number of wells/plates to be assayed). This transfection preparation was then incubated at RT for 20 minutes. DMEM with 10% FBS and no P/S media was warmed to 37° C., the HEK293 plate media was changed and the cells washed carefully with 1 mL of the warmed DMEM with 10% FBS no P/S media, 1.6 mL of the warmed DMEM with 10% FBS no P/S media was then added to each well. 400 μL of the transfection preparation was then added dropwise to each well as appropriate and the plate was gently swirled in a circular motion. The plate was then incubated overnight at 37° C. in 5% CO2.
Compound Incubation and Preparation of Analysis Samples Compound stock solutions were prepared in a 12% BSA in PBS solution such that a 40 μL spike into 2 ml, of plain DMEM would yield a concentration of 50 μM of test compound (the compound treated media). Remaining compound stock solution in 12% BSA in PBS was frozen at −20° C. to allow for media stability testing. The HEK293 6-well plate was removed from the incubator and the wells gently rinsed with 1 mL of plain DMEM that had been prewarmed to 37° C. 2 mL of the compound treated media was then added to each well. A 100 μL sample of the compound treated media was sampled to represent a T=0 h sample; 5 μL of this sample (the remainder was reserved and frozen in case of re-analysis being required) was diluted with 45 μL of DMEM and crashed with 50 μL MeCN in a 96-well plate which was sealed and kept on ice. The HEK293 6-well plate was then incubated at 37° C. in 5% CO2 for 1 hour, the plate was then removed from the incubator and a 100 μL sample of media taken from each well to represent a T=1 h sample; 5 μL of this sample (the remainder was reserved and frozen in case of re-analysis being required) was diluted with 45 μL of DMEM and crashed with 50 μL MeCN into the 96-well plate which was re-sealed and stored at −20° C. The remaining media was then removed from the HEK293 6-well plate, the wells were gently rinsed twice with 1 mL of 0.5% BSA in DMEM, the media was then removed and the 6-well plate allowed to dry completely at RT. 1 ml of 3:2 Hexane:Isopropanol (HIP) was added to each well in a fume cupboard and the plate allowed to stand for 30 minutes at RT without shaking. The HIP solution was then transferred to 2 mL Eppendorf tubes, and the process was repeated with a second 1 mL aliquot of HIP and the two aliquots combined. The HIP samples were then dried down under a nitrogen stream.
Silica gel plates were prepared in a fume cupboard by initially drawing a line 1.5 cm from the bottom edge of the plate and then drawing sample lanes with a width of 1 cm and a separation of 0.5 cm between lanes. TLC buffer for phospholipids was prepared as a 31:62:7 solvent mix of Methanol:Chloroform:Ammonium Hydroxide. Plates were pre-run in a humid chamber containing 200 mL of the TLC buffer until the solvent front was 1.5 cm from the plate edge, the plate was then allowed to dry. […]

2-(5Z,8Z,11Z,14Z)-icosa-5,8,11,14-tetraenamidoethyl (trimethylammonio) ethylphosphate [Compound 3]
Transport via Mfsd2a: TLC band intensity in WT cells compared with D97A mutant Mfsd2a and/or empty vector cells: transported via Mfsd2a
